# Laboratory results published in ChEMBL document CHEMBL1147973, “Ligand based virtual screening and biological evaluation of inhibitors of chorismate mutase (Rv1885c) from Mycobacterium tuberculosis H37Rv” (Bioorg Med Chem Lett, 2007).
# Biological target: T1, Secreted chorismate mutase (Mycobacterium tuberculosis, UniProt P9WIB9)
# T1 sequence (P9WIB9 whole entry): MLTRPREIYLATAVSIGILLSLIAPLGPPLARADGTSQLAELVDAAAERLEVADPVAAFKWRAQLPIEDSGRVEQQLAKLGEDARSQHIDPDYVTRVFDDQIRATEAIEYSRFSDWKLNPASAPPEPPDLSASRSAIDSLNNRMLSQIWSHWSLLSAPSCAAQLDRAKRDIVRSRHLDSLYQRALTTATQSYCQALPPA
# Assay: Inhibition of chorismate mutase in Mycobacterium tuberculosis H37Rv strain
row,Structure (SMILES),Ki
1,COc1ccc(CCNc2c([N+](=O)[O-])cc(C(=O)O)cc2S(N)(=O)=O)cc1OC,5.7 µM
2,CNc1ccc(C(=O)OC)cc1[N+](=O)[O-],28.8 µM
3,COc1cc(/C=C(\C(=O)O)c2ccc(Cl)cc2)c([N+](=O)[O-])cc1OC,17.7 µM
4,CC(C)CC(NC(=O)C1CSC(c2ccccc2)N1C(=O)OC(C)(C)C)C(=O)O (centres undefined),21.1 µM
